In patent publication US8729115B2 (Cardiolynx AG, priority 2010, dated 2014):
Like-named read-outs stand apart in the source and are kept apart here.

Experiments:
[1] = system: isolated rat cardiac mitochondria; experiment: ROS/RONS formation in isolated mitochondria (L-012 chemiluminescence)
Description: Reactive oxygen and nitrogen species formation in response to in vitro challenge of isolated rat cardiac mitochondria based on reaction of the chemiluminescence dye L-012 (a luminal analogue), Example 4, Table 2. X-axis: compounds tested with concentration [μM]; y-axis: photons n per 30 sec of emission of chemiluminescence light (ECL).
Vascular oxidative stress is a well-known side effect of nitrate tolerance (an adverse condition that develops under chronic nitrate therapy). Therefore, the induction of reactive oxygen and nitrogen species formation in response to in vitro challenges with the test compounds was assessed in isolated mitochondria according to a published procedure [Daiber, A. et al., Mol Pharmacol 66 (2004), 1372-1382; Daiber, A. et al., Biochem Biophys Res Commun 338 (2005), 1865-1874; Daiber, A. et al., Mol Pharmacol 68 (2005), 579-588]. The assay is based on the reaction of the chemiluminescence dye L-012 (a luminol analogue) with reactive oxygen and nitrogen species (RONS, e.g. superoxide anion radicals, peroxynitrite anions or nitrogen dioxide radicals) and subsequent emission of chemiluminescence light (ECL). The signal is counted in photons/time (=counts/30 s). The data are based on experiments with cardiac mitochondria from at least 6 rats on 3 different days.

[2] = system: rat aortic ring segments; experiment: Isometric tension: vasodilation of rat aortic ring segments preconstricted with phenylephrine; type: cell-based; details: for pD2-value (vasodilatory potency) / EC50: concentration-relaxation curve; for pD2-value (vasodilatory potency) / Vasodilatory potency (in words) / EC50: phenylephrine-preconstricted rat aorta; for EC50: read-out: pD2-value (vasodilatory potency) (converted)
Description: Vasodilation of rat aortic ring segments preconstricted with phenylephrine, Example 3, Table 1. […].
After reaching a stable preconstriction of vascular tone, the vessels were dose-dependently vasodilated until the final tone at the highest added concentration of the vasodilator was reached. The vasodilators were added at half-logarithmic concentrations starting at 10^−8 M (=10 nanomolar). Vasodilatory potency was compared creating a concentration-relaxation curve. The data are based on experiments with aorta from at least 6 rats on 3 different days.

[3] = system: Beagle dogs; experiment: Effects on blood pressure in Beagle dogs; type: in vivo, dog
Description: Each group was administered three ascending doses separated by 4 wash out days providing 9 different treatments as shown in the following table:
The liquid was administered per gavage. […] The capsule was administered orally.
In this group the liquid was administered intravenously as a slow bolus injection.
Blood pressure was assessed for all treatments before dosing and 1, 2, 3, 4, 5, 6, 8, 12 and 24 h after dosing.

[4] = system: Wistar rats; experiment: Endothelial dysfunction, in vivo tolerance and cross-tolerance after 7 days treatment; parameters: species or system rat
Description: To assess the tendency of a given organic nitrate to induce in vivo tolerance and endothelial dysfunction, Wistar rats were treated for 7 days with placebo (solvent alone) or 3 increasing doses of the organic nitrate. […] Vascular function was assessed by isometric tension studies as described above. Acetylcholine (ACh) is an endothelium-dependent vasodilator whereas organic nitrates (e.g. compound 1 or nitroglycerin) are endothelium-independent vasodilators. Endothelial dysfunction will result in impaired ACh-dependent relaxation whereas nitrate tolerance and/or vascular dysfunction causes impaired compound 1 dependent or nitroglycerin dependent vasodilation.

[5] = 10-1000 μM, isolated mitochondria

| Compound | Effect on RONS signal / in vitro oxidative stress (in words) [1, 5] | ROS formation, Mean (ECL signal) ([1]; Conc. 10 μM) | ROS formation, Mean (ECL signal) ([1]; Conc. 100 μM) | ROS formation, Mean (ECL signal) ([1]; Conc. 1000 μM) | Isometric tension, relaxation (Mean ± SEM) ([2]; Log [M] −3) | Isometric tension, relaxation (Mean ± SEM) ([2]; Log [M] −3.5) | Isometric tension, relaxation (Mean ± SEM) ([2]; Log [M] −4) | Isometric tension, relaxation (Mean ± SEM) ([2]; Log [M] −4.5) | Isometric tension, relaxation (Mean ± SEM) ([2]; Log [M] −5) | Isometric tension, relaxation (Mean ± SEM) ([2]; Log [M] −5.5) | Isometric tension, relaxation (Mean ± SEM) ([2]; Log [M] −6) | Isometric tension, relaxation (Mean ± SEM) ([2]; Log [M] −6.5) | Isometric tension, relaxation (Mean ± SEM) ([2]; Log [M] −7) | Isometric tension, relaxation (Mean ± SEM) ([2]; Log [M] −7.5) | pD2-value (vasodilatory potency) [2] | Vasodilatory potency (in words) [2] | EC50 [2] | ROS formation, Mean (ECL signal) ([1]; rat, 10 μM) | ROS formation, Mean (ECL signal) ([1]; rat, 100 μM) | ROS formation, Mean (ECL signal) ([1]; rat, 1000 μM) | further results |
| --- | --- | --- | --- | --- | --- | --- | --- | --- | --- | --- | --- | --- | --- | --- | --- | --- | --- | --- | --- | --- | --- |
| O=[N+]([O-])OCCCCO [HBN, 1-Hydroxy-4-butyl nitrate] | somewhat more pronounced effects on RONS formation | 5116.17 counts/30 s | 3005.75 counts/30 s | 10472.33 counts/30 s | 95.71 ± 1.27% | 95.69 ± 2.40% | 77.74 ± 3.73% | 55.15 ± 5.33% | 34.50 ± 4.63% | 15.21 ± 4.71% | 7.11 ± 2.87% | 3.24 ± 2.77% | 1.42 ± 2.55% | 1.84 ± 1.72% | approximately 4.5 | intermediate vasodilatory potency |  |  |  |  |  |
| O=[N+]([O-])O[C@H]1CO[C@H]2[C@@H]1OC[C@H]2O[N+](=O)[O-] [ISDN, Isosorbide dinitrate] | increases the RONS signal in a concentration-dependent fashion, although only slightly | 5718.33 counts/30 s | 6608.83 counts/30 s | 8744.83 counts/30 s |  |  |  |  |  |  |  |  |  |  |  |  |  |  |  |  |  |
| CNCCCCO[N+](=O)[O-].O=[N+]([O-])O [MNBAN, N-Methyl-N-(4-nitroxybutyl)ammonium nitrate] |  |  |  |  | 95.84 ± 2.26% | 88.56 ± 2.69% | 74.46 ± 4.13% | 50.81 ± 6.88% | 30.56 ± 7.29% | 14.85 ± 5.75% | 8.33 ± 4.85% | 5.04 ± 3.29% | 3.24 ± 2.80% | 1.72 ± 1.50% |  | intermediate vasodilatory potency | ~31.6 µM |  |  |  | Effect on RONS signal / in vitro oxidative stress (in words) [1]: somewhat more pronounced effects on RONS formation |
| CCCCC(=O)N(Cc1ccc(-c2ccccc2-c2nnn[nH]2)cc1)C(C(=O)N(C)CCCCO[N+](=O)[O-])C(C)C [compound 2, (2R)-3-Methyl-2-(N-((2′-(1H-tetrazol-5-yl)biphenyl-4-yl)methyl)pentanamido)-butanoyl N-methyl-N-4-nitroxybutyl-amide] |  |  |  |  |  | 50.40 ± 7.89% | 31.38 ± 6.92% | 13.69 ± 3.68% | 8.61 ± 2.77% | 8.56 ± 2.18% | 7.43 ± 1.86% | 6.06 ± 1.69% | 4.61 ± 1.19% | 2.45 ± 0.93% |  |  | < 100 µM | 9007.83 counts/30 s | 4532.33 counts/30 s | 4386.00 counts/30 s |  |
| CCCCC(=O)N(Cc1ccc(-c2ccccc2-c2nnn[nH]2)cc1)[C@H](C(=O)O)C(C)C [compound 3, Valsartan] |  |  |  |  |  | 21.98 ± 3.75% | 9.43 ± 2.03% | 4.94 ± 2.65% | 0.29 ± 2.56% | −0.58 ± 3.84% | 1.05 ± 3.85% | 0.87 ± 2.97% | 1.64 ± 3.06% | 4.25 ± 2.13% |  | weak relaxing effects | < 1000 µM | 2971.58 counts/30 s | 2871.29 counts/30 s | 9878.96 counts/30 s |  |
| (2R)-3-Methyl-2-(N-((2′-(1-(2″-nitroxyethylaminocarbonyloxymethyl)-1H-tetrazol-5-yl)biphenyl-4-yl)methyl)pentanamido)butanoyl N-methyl-N-4-nitroxybutyl-amide 1A and the corresponding 2-(2″-nitroxyethylaminocarbonyloxymethyl)-2H-tetrazol-5-yl isomer 1B [compound 1] |  | 6820.33 counts/30 s | 4534.00 counts/30 s | 5088.33 counts/30 s |  | 91.52 ± 3.83% | 88.20 ± 5.11% | 81.43 ± 6.54% | 59.97 ± 6.28% | 43.47 ± 5.88% | 27.39 ± 4.09% | 14.66 ± 2.59% | 8.52 ± 1.64% | 4.64 ± 0.93% | approximately 5.5 |  |  |  |  |  | Blood pressure lowering effect (in words) ([3]; gavage, oral capsule or intravenous, ascending doses): two sequential lowerings of blood pressure; Duration of effect on blood pressure ([3]; overall): at least 10 hours; Blood pressure lowering observed up to ([3]; several animals): up to 24 hours; Effect on RONS signal / in vitro oxidative stress (in words) ([1]; 10-1000 μM, isolated mitochondria, listed as dinitrate 1): RONS signal is suppressed at higher concentrations; Effect on RONS signal / in vitro oxidative stress (in words) ([1]; 10-1000 μM, isolated mitochondria, listed as valsartan dinitrate 1): does not induce in vitro oxidative stress in isolated mitochondria; Vasodilatory potency (in words) ([2]; listed as Valsartan dinitrate 1): as potent as isosorbide dinitrate; Vasodilatory potency (in words) ([2]; listed as valsartan dinitrate 1): as active as isosorbide dinitrate; Adverse effects on endothelial or vascular function, in vivo tolerance or cross tolerance ([4]; low and middle dose): did not show any significant adverse effects on endothelial or vascular function; Toxic effects ([4]; up to the highest dose): not show any toxic effects |
